Here are results for 23 compounds from patent US10800786B2, “Bicyclic compounds as ATX inhibitors” (Hoffmann-La Roche Inc., priority 2015, dated 2020).

One assay addresses ATX (human His-tagged) (Homo sapiens (Human), UniProt Q13822). The assay is described as follows: Human ATX enzyme inhibition assay (fluorescence quenching, MR121 substrate). The format is biochemical.
Conditions: not given
Here is the method:
Human Atx Enzyme Inhibition Assay
Assay working solutions were made as follows:
Assay buffer (50 mM Tris-HCl, 140 mM NaCl, 5 mM KCl, 1 mM CaCl2, 1 mM MgCl2, 0.01% Triton-X-100, pH 8.0;
MR121 substrate solution: MR121 substrate stock solution (800 μM MR121 substrate in DMSO), diluted to 2-5× final concentration in assay buffer.
10 μL of MR121 substrate solution was added ([…] final concentration), mixed 30 times and then incubated for 15 minutes at 30° C.
The term IC50 denotes the point on the concentration scale where inhibition reaches its midpoint. `O=C(c1cc(OCC2CCOCC2)nc(C2CC2)c1)N1CC2=C(CC(C(=O)N3CCc4[nH]nnc4C3)C2)C1` [Example 4.01, [2-cyclopropyl-6-(oxan-4-ylmethoxy)pyridin-4-yl]-[5-(1,4,6,7-tetrahydrotriazolo[4,5-c]pyridine-5-carbonyl)-3,4,5,6-tetrahydro-1H-cyclopenta[c]pyrrol-2-yl]methanone]: the concentration for half-maximal inhibition (IC50) was found to be 10 nM.

Still in this assay, the particulars now being: 30 nM ATX, MR121 substrate, 30° C., pH 8.0; read-out: ATX IC50.
With `CC(C)(C)C(=O)Nc1cc(C(F)(F)F)cnc1COC(=O)N1CC2=C(C1)CN(C(=O)[C@@H]1CCc3[nH]nnc3C1)C2` [Example 1.00, [3-(2,2-Dimethylpropanoylamino)-5-(trifluoromethyl)pyridin-2-yl]methyl 2-[(5R)-4,5,6,7-tetrahydro-1H-benzotriazole-5-carbonyl]-1,3,4,6-tetrahydropyrrolo[3,4-c]pyrrole-5-carboxylate], the concentration for half-maximal inhibition (IC50) is 7 nM.
Still for that read-out and setting: to `NS(=O)(=O)C1CCN(C(=O)N2CC3=C(CN(C(=O)c4cc(OCC5CCOCC5)nc(C5CC5)c4)C3)C2)CC1` [Example 2.04, 1-[2-[2-cyclopropyl-6-(oxan-4-ylmethoxy)pyridine-4-carbonyl]-1,3,4,6-tetrahydropyrrolo[3,4-c]pyrrole-5-carbonyl]piperidine-4-sulfonamide] belongs 5.5 nM; to `O=C1NC(=O)N2CCN(C(=O)N3CC4=C(CN(C(=O)c5cc(OCC6CCOCC6)nc(C6CC6)c5)C4)C3)CC12` (centres unmarked) [Example 2.14, 7-[2-[2-cyclopropyl-6-(oxan-4-ylmethoxy)pyridine-4-carbonyl]-1,3,4,6-tetrahydropyrrolo[3,4-c]pyrrole-5-carbonyl]-5,6,8,8a-tetrahydroimidazo[1,5-a]pyrazine-1,3-dione], 122 nM; to `Cc1nnn(Cc2cc(C(F)(F)F)ccc2CCC(=O)N2CC3=C(C2)CN(C(=O)c2ccc4[nH]nnc4c2)C3)n1` [Example 1.06, 1-[5-(1H-benzotriazole-5-carbonyl)-1,3,4,6-tetrahydropyrrolo[3,4-c]pyrrol-2-yl]-3-[2-[(5-methyltetrazol-2-yl)methyl]-4-(trifluoromethyl)phenyl]propan-1-one], 11 nM.
The same measure, in the same setting: with `O=C(c1cc(OCC2CCOCC2)nc(C2CC2)c1)N1CC2=C(CN(Cc3ccc4[nH]c(=O)oc4c3)C2)C1` [Example 5.00, 6-[[5-[2-Cyclopropyl-6-(oxan-4-ylmethoxy)pyridine-4-carbonyl]-1,3,4,6-tetrahydropyrrolo[3,4-c]pyrrol-2-yl]methyl]-3H-1,3-benzoxazol-2-one] the figure was 1 nM; with `O=C(c1cc(OCC2CCOCC2)nc(C2CC2)c1)N1CC2=C(C1)CN(C(=O)N1CCc3onc(O)c3C1)C2` [Example 2.13, [2-cyclopropyl-6-(oxan-4-ylmethoxy)pyridin-4-yl]-[5-(3-hydroxy-6,7-dihydro-4H-[1,2]oxazolo[4,5-c]pyridine-5-carbonyl)-1,3,4,6-tetrahydropyrrolo[3,4-c]pyrrol-2-yl]methanone], 97 nM; with `O=C(c1cc(OCC2CCOCC2)nc(C2CC2)c1)N1CC2=C(C1)CN(C(=O)N1CCc3c(cn[nH]c3=O)C1)C2` [Example 2.08, 6-[2-[2-cyclopropyl-6-(oxan-4-ylmethoxy)pyridine-4-carbonyl]-1,3,4,6-tetrahydropyrrolo[3,4-c]pyrrole-5-carbonyl]-2,5,7,8-tetrahydropyrido[3,4-d]pyridazin-1-one], 10 nM.
On the same count and under the same terms, to `CC(C)(C)C(=O)Nc1cc(C(F)(F)F)cnc1COC(=O)N1CC2=C(C1)CN(C(=O)c1ccc3[nH]nnc3c1)C2` [Example 1.04, [3-(2,2-dimethylpropanoylamino)-5-(trifluoromethyl)pyridin-2-yl]methyl 2-(1H-benzotriazole-5-carbonyl)-1,3,4,6-tetrahydropyrrolo[3,4-c]pyrrole-5-carboxylate] belongs 8 nM; to `CC(C)(C)C(=O)Nc1cc(C(F)(F)F)cnc1COC(=O)N1CCC2=C(CCN(C(=O)c3ccc4[nH]nnc4c3)C2)C1` [Example 1.07, [3-(2,2-dimethylpropanoylamino)-5-(trifluoromethyl)pyridin-2-yl]methyl 6-(1H-benzotriazole-5-carbonyl)-1,3,4,5,7,8-hexahydro-2,6-naphthyridine-2-carboxylate], 17 nM; to `O=C(OCc1c[nH]nn1)N1CC2=C(C1)CN(C(=O)c1cc(OCC3CCOCC3)nc(C3CC3)c1)C2` [Example 3.00, (1H-1,2,3-Triazol-4-yl)methyl 5-(2-cyclopropyl-6-((tetrahydro-2H-pyran-4-yl)methoxy)isonicotinoyl)-3,4,5,6-tetrahydropyrrolo[3,4-c]pyrrole-2(1H)-carboxylate], 36 nM.
Turning to `O=C1NS(=O)(=O)c2cc(C(=O)N3CC4=C(CN(C(=O)c5cc(OCC6CCOCC6)nc(C6CC6)c5)C4)C3)ccc21` [Example 1.10, 6-[5-[2-cyclopropyl-6-(oxan-4-ylmethoxy)pyridine-4-carbonyl]-1,3,4,6-tetrahydropyrrolo[3,4-c]pyrrole-2-carbonyl]-1,1-dioxo-1,2-benzothiazol-3-one], the half-inhibitory concentration (IC50) was found to be 13 nM.
Regarding `NS(=O)(=O)C1(F)CCN(C(=O)N2CC3=C(CN(C(=O)c4cc(OCC5CCOCC5)nc(C5CC5)c4)C3)C2)CC1` [Example 6.00, 1-[2-[2-Cyclopropyl-6-(oxan-4-ylmethoxy)pyridine-4-carbonyl]-1,3,4,6-tetrahydropyrrolo[3,4-c]pyrrole-5-carbonyl]-4-fluoropiperidine-4-sulfonamide], the IC50 was determined as 3 nM.
Same read-out and setting: to `O=C(c1cc(OCC2CCOCC2)nc(C2CC2)c1)N1CC2=C(C1)CN(C(=O)c1ccc3[nH]nnc3c1)C2` [Example 1.03] belongs 5 nM; to `Cn1c(=O)[nH]c2ccc(C(=O)N3CC4=C(CN(C(=O)c5cc(OCC6CCOCC6)nc(C6CC6)c5)C4)C3)cc21` [Example 1.01, 6-(5-(2-cyclopropyl-6-((tetrahydro-2H-pyran-4-yl)methoxy)isonicotinoyl)-1,2,3,4,5,6-hexahydropyrrolo[3,4-c]pyrrole-2-carbonyl)-1-methyl-1H-benzo[d]imidazol-2(3H)-one], 8 nM; to `CC(C)(C)C(=O)Nc1cc(Cl)c(Cl)nc1COC(=O)N1CC2=C(C1)CN(C(=O)c1ccc3[nH]nnc3c1)C2` [Example 1.08, [5,6-dichloro-3-(2,2-dimethylpropanoylamino)pyridin-2-yl]methyl 2-(1H-benzotriazole-5-carbonyl)-1,3,4,6-tetrahydropyrrolo[3,4-c]pyrrole-5-carboxylate], 7 nM.
In the case of `O=C(c1cc(OCC2CCOCC2)nc(C2CC2)c1)N1CC2=C(C1)CN(C(=O)N1CCc3[nH]nnc3C1)C2` [Example 2.02, [2-cyclopropyl-6-(oxan-4-ylmethoxy)pyridin-4-yl]-[5-(1,4,6,7-tetrahydrotriazolo[4,5-c]pyridine-5-carbonyl)-1,3,4,6-tetrahydropyrrolo[3,4-c]pyrrol-2-yl]methanone], the IC50 is 6 nM.
Consider `O=C(OCc1ccc(OC(F)(F)F)cc1)N1CC2=C(C1)CN(C(=O)c1ccc3[nH]nnc3c1)C2` [Example 1.05, 4-(trifluoromethoxy)benzyl 5-(1H-benzo[d][1,2,3]triazole-5-carbonyl)-3,4,5,6-tetrahydropyrrolo[3,4-c]pyrrole-2(1H)-carboxylate], for which the IC50 was 3 nM.
For the compound `CC(C)(C)C(=O)Nc1cc(C(F)(F)F)cnc1COC(=O)N1CC2=C(C1)CN(C(=O)N1CCc3[nH]nnc3C1)C2` [Example 2.00, [3-(2,2-Dimethylpropanoylamino)-5-(trifluoromethyl)pyridin-2-yl]methyl 2-(1,4,6,7-tetrahydrotriazolo[4,5-c]pyridine-5-carbonyl)-1,3,4,6-tetrahydropyrrolo[3,4-c]pyrrole-5-carboxylate], the half-maximal inhibitory concentration (IC50) came out at 5 nM.
The same measure, in the same setting: with `O=C(c1cc(OCC2CCOCC2)nc(C2CC2)c1)N1CC2=C(C1)CN(C(=O)N1CCc3c(n[nH]c3O)C1)C2` [Example 2.12, [2-cyclopropyl-6-(oxan-4-ylmethoxy)pyridin-4-yl]-[5-(3-hydroxy-2,4,5,7-tetrahydropyrazolo[3,4-c]pyridine-6-carbonyl)-1,3,4,6-tetrahydropyrrolo[3,4-c]pyrrol-2-yl]methanone] the figure was 441 nM; with `O=C(c1cc(OCC2CCOCC2)nc(C2CC2)c1)N1CC2=C(C1)CN(C(=O)[C@@H]1CCc3[nH]nnc3C1)C2` [Example 1.02, [2-cyclopropyl-6-(oxan-4-ylmethoxy)pyridin-4-yl]-[5-[(5R)-4,5,6,7-tetrahydro-1H-benzotriazole-5-carbonyl]-1,3,4,6-tetrahydropyrrolo[3,4-c]pyrrol-2-yl]methanone], 5 nM.
Same read-out and setting: with `NS(=O)(=O)C1CCN(C(=O)C2CC3=C(C2)CN(C(=O)c2cc(OCC4CCOCC4)nc(C4CC4)c2)C3)CC1` [Example 4.00, 1-[2-[2-Cyclopropyl-6-(oxan-4-ylmethoxy)pyridine-4-carbonyl]-3,4,5,6-tetrahydro-1H-cyclopenta[c]pyrrole-5-carbonyl]piperidine-4-sulfonamide] the figure was 11 nM; with `O=C(c1cc(OCC2CCOCC2)nc(C2CC2)c1)N1CC2=C(C1)CN(C(=O)c1ccc3c(O)noc3c1)C2` [Example 1.09, [5-[2-cyclopropyl-6-(oxan-4-ylmethoxy)pyridine-4-carbonyl]-1,3,4,6-tetrahydropyrrolo[3,4-c]pyrrol-2-yl]-(3-hydroxy-1,2-benzoxazol-6-yl)methanone], 4 nM.
